Km data for 1 substance are collected here from paper PMC9649612, “Molecular docking and biochemical validation of (-)-syringaresinol-4-O-β-D-apiofuranosyl-(1→2)-β-D-glucopyranoside binding to an allosteric site in monoamine transporters” (Frontiers in Pharmacology, 2022).

The target of test [1] is T1, WT-hSERT (Homo sapiens, UniProt P31645).
T1 construct: expressed in transfected cells; host or cells: HeLa (ATCC CCL-2), transient, pcDNA3.1
Further details: method as in our previous experiments. The note with it: ref our previous experiments, read-out: Km for APP+ transport; cited from earlier work.

In test [2] the target is T2, WT-hNET (Homo sapiens, UniProt P23975).
T2 construct: expressed in transfected cells; host or cells: HeLa
T2 sequence (P23975 whole entry): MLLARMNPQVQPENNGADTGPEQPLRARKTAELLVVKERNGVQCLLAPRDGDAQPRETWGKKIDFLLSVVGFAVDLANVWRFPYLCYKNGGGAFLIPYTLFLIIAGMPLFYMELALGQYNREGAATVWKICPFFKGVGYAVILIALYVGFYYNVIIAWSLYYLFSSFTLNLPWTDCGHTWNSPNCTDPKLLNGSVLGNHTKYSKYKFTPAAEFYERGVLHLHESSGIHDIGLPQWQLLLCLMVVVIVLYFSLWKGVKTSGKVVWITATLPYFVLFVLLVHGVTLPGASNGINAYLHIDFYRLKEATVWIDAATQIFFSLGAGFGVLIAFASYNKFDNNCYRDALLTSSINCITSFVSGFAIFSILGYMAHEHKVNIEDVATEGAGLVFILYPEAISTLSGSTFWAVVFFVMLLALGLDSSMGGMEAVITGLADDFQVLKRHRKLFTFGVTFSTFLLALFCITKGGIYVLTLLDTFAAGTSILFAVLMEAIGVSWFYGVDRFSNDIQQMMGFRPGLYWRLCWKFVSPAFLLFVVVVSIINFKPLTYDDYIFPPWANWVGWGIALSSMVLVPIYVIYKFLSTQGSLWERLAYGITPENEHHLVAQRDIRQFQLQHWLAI
The test can be described thus: APP+ transport (uptake) in HeLa cells expressing WT-hNET. The test is classed as cell-based. The following applies: hNET; kinetic analysis. As to the method:
(§1) HeLa cells were cultured in Dulbecco’s Modified Eagle’s Medium supplemented with 10% fetal bovine serum, 100 units/ml penicillin, and 100 μg/ml streptomycin at 37°C in a humidified 5% CO2 incubator. Cells were plated in a 6-well culture plate and grown overnight. Cells at ∼70% confluence were transfected with hSERT, hDAT, or hNET cDNA in pcDNA3.1 by lipofectamine 2000. Transfected cells were incubated for 24 h at 37°C with 5% CO2 and then transferred into a 12-well plate placed with polylysine coated slides. After grown for additional 12–16 h, the cells were assayed for APP^+ or ASP^+ fluorescence image acquisition.
(§2) The cells expressing WT or mutants of hSERT, hDAT, or hNET were wet mounted on polylysine coated glass slides in 12-well plates and applied for the indicated treatments. […] The extent of APP^+ accumulated in the cells was determined by confocal imaging analysis. ASP^+ binding to SERT in the cell membrane was measured with digitonin-permeabilized cells ([Li M. et al., 2022a]). […] After removing excess ASP^+ by rapid washing three times, ASP^+ binding was determined by confocal imaging analysis.
(§3) Images were analyzed using Zen Blue software.
(§4) Nonlinear regression fits of experimental and calculated data were performed with Origin (Origin Lab). […]

In test [3] the target is T3, WT-hDAT (Homo sapiens, UniProt Q01959).
T3 construct: expressed in transfected cells; host or cells: HeLa
T3 sequence (Q01959 whole entry): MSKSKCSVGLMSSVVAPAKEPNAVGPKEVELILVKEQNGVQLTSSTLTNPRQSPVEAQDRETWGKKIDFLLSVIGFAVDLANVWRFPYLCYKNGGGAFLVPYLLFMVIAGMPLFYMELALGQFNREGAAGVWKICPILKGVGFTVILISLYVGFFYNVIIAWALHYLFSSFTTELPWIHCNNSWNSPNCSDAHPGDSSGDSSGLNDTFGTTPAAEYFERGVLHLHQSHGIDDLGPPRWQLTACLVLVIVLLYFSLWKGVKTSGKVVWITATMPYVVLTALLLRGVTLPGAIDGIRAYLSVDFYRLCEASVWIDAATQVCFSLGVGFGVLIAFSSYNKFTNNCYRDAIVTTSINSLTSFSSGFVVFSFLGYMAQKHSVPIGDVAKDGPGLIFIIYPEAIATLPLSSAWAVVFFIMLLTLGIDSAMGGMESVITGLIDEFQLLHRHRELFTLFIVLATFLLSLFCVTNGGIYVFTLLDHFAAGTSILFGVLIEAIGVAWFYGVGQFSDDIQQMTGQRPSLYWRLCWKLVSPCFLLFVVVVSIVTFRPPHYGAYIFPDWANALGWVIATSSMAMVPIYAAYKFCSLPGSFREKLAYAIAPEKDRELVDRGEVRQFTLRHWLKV
The test is described as follows: APP+ transport (uptake) in HeLa cells expressing WT-hDAT. The test is classed as cell-based. The note with it: hDAT; kinetic analysis. As to the method:
as §1, §2, §3, §4

T1 sequence (P31645 whole entry): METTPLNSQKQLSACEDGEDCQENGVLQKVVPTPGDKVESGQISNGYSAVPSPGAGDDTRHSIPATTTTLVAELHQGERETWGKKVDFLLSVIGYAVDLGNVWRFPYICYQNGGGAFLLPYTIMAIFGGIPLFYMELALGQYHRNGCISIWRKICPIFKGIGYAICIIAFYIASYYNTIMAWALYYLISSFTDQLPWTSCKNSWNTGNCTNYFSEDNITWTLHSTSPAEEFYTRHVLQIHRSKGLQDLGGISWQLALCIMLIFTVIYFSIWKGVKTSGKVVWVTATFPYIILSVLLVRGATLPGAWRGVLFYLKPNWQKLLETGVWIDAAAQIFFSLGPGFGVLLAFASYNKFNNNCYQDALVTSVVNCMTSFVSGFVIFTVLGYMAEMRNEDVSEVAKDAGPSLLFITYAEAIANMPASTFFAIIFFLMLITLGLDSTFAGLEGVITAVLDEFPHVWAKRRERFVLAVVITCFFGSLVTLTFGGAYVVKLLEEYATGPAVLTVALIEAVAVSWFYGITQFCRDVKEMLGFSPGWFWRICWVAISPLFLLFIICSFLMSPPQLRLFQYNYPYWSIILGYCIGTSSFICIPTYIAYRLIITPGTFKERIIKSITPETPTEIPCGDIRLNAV

A word on the Km: it is the substrate concentration at which the rate is half of its maximum. In the case of “4-[4-(Dimethylamino)phenyl]-1-methylpyridinium [APP^+, reference compound]”, the Km in test [1] was 2.63 ± 0.16 µM; in test [2], 1.56 ± 0.22 µM; in test [3], 2.89 ± 0.48 µM.
